In ChEMBL document CHEMBL1144003, “Trypanocidal activity of a new pterocarpan and other secondary metabolites of plants from Northeastern Brazil flora” (Bioorg Med Chem, 2008):
In brackets after ≈: the same amount, converted by molar mass.

Columns and labels:
Trypanosoma cruzi = assay: Trypanocidal activity against Trypanosoma cruzi Berenice after 72 hrs; format: functional, organism-based
PBL = assay: Cytotoxicity against human PBL cells after 72 hrs by alamar blue assay; format: cell-based
B16 = assay: Antiproliferative activity against mouse B16 cells; format: functional, cell-based
HCT-8 = assay: Antiproliferative activity against human HCT8 cells; format: functional, cell-based
CCRF-CEM = assay: Antiproliferative activity against human CEM cells; format: functional, cell-based
HL-60 = assay: Antiproliferative activity against human HL60 cells; format: functional, cell-based

**Q.** `CC(C)=CCC/C(C)=C/Cc1cc2c(cc1O)OC[C@H]1c3cc4c(cc3O[C@@H]21)OCO4` was tested. Which IC50 (Trypanosoma cruzi) did it give?
**A.** The IC50 was 12.2 µg/mL (≈ 29 µM).

**Q.** What about the IC50 (PBL) of the same molecule?
**A.** The IC50 was greater than 50 µg/mL.

**Q.** Which IC50 (Trypanosoma cruzi) does the source give for `CC(C)=CCC/C(C)=C/Cc1c(O)ccc(C(=O)/C=C/c2ccc(O)c(O)c2)c1O` here?
**A.** Its IC50 is 10.6 µg/mL (≈ 25.9 µM).

**Q.** And the IC50 (PBL)?
**A.** Its IC50 is 23 µg/mL (≈ 56.4 µM).

**Q.** Which results are given for `COC1=C(OC)C(=O)C2=C(C[C@H]3[C@](C)(C2)C[C@@H]2C[C@@]23C)C1=O` (relative stereo)?
**A.** IC50 (Trypanosoma cruzi): 1.3 µg/mL (≈ 4.3 µM); IC50 (PBL): 28.4 µg/mL (≈ 93.8 µM)

**Q.** `CC(C)=CCc1c(O)ccc2c1OC[C@H]1c3cc4c(cc3O[C@@H]21)OCO4` was tested. Which IC50 (Trypanosoma cruzi) did it give?
**A.** Its IC50 is 13.3 µg/mL (≈ 37.7 µM).

**Q.** And the IC50 (PBL)?
**A.** Its IC50 is greater than 50 µg/mL.

**Q.** How did the IC50 (PBL) turn out when `COc1cccc2c1C(=O)c1c(O)c3c(c(O)c1C2=O)C[C@@](O)(C(=O)CO)C[C@@H]3O[C@H]1C[C@H](N)[C@H](O)[C@H](C)O1` [DOXORUBICIN] was run?
**A.** The IC50 was 0.97 µg/mL (≈ 1.78 µM).

**Q.** `CC1=C(C)C(=O)O[C@@H]([C@]2(C)OC(=O)[C@]34CC[C@H]5[C@@H](C[C@H]6O[C@]67[C@@H](O)C=CC(=O)[C@]57C)[C@@H]3CC[C@H]24)C1` [WITHAPHYSALIN M] was tested. Which IC50 (Trypanosoma cruzi) did it give?
**A.** Its IC50 is 0.7 µg/mL (≈ 1.45 µM).

**Q.** Which IC50 (Trypanosoma cruzi) does the source give for `C[C@@]12C[C@H]3OC(=O)[C@@H]1CO[C@]14O[C@]5([C@H]2C1=O)[C@@](O)(CC[C@H]1[C@H]4C[C@H]2O[C@]24CC=CC(=O)[C@]14C)C(=O)O[C@@]35C` [PHYSALIN F] here?
**A.** Its IC50 is 9.4 µg/mL (≈ 17.9 µM).

**Q.** What about the IC50 (PBL) of the same molecule?
**A.** Its IC50 is 4.23 µg/mL (≈ 8.03 µM).

**Q.** And the IC50 (B16)?
**A.** The IC50 was 0.5 µg/mL (≈ 0.95 µM).

**Q.** And the IC50 (HCT-8)?
**A.** The IC50 was 0.5 µg/mL (≈ 0.95 µM).

**Q.** And the IC50 (CCRF-CEM)?
**A.** The IC50 was 0.5 µg/mL (≈ 0.95 µM).

**Q.** And the IC50 (HL-60)?
**A.** The IC50 was 0.5 µg/mL (≈ 0.95 µM).

**Q.** With `CCOC1O[C@@](C)([C@H]2CC(C)=C(C)C(=O)O2)[C@H]2CC[C@H]3[C@@H]4C[C@H]5O[C@]56[C@@H](O)C=CC(=O)[C@]6(C)[C@H]4CC[C@]123` (stereo partly drawn) [WITHAPHYSALIN O] as the molecule, how does the IC50 (Trypanosoma cruzi) read?
**A.** The IC50 was 0.3 µg/mL (≈ 0.585 µM).

**Q.** With `CC1=C(C)C(=O)O[C@@H]([C@]2(C)OC(=O)[C@]34CC[C@H]5[C@@H](C[C@H]6O[C@]67[C@@H](O)CCC(=O)[C@]57C)[C@@H]3CC[C@H]24)C1` [WITHAPHYSALIN N] as the molecule, how does the IC50 (Trypanosoma cruzi) read?
**A.** The IC50 was 6.4 µg/mL (≈ 13.2 µM).
